# Test results taken from US8193372B2, “Phosphothiophene and phosphothiazole HCV polymerase inhibitors” (Idenix Pharmaceuticals, Inc., priority 2009, dated 2012).
# Columns and labels:
# in vitro = settings: human
# [1] = test system: HCV Con1 subgenomic replicon of genotype 1b (GS4.1 cells); assay: microbe, parasite or virus in culture; assay type: cell-based, HCV genotype 1b; settings: Hepatitis C virus; for EC50: 72 h
SMILES,CC50 (in vitro),IC50 [1],EC50 [1]
"CCOP(=O)(Nc1cc(-c2ccc(F)cc2)sc1C(=O)O)c1ccc(C)cc1C (centres unmarked) [Compound 22, 2-Thiophenecarboxylic acid, 3-N-[(2,4-dimethyl-phenyl)-phosphonamidateethyl ester]-5-(4-fluorophenyl)]",> 8.3 µM,0.1 to 8.3 µM,0.1 to 8.3 µM
CCOP(=O)(Nc1cc(-c2ccc(F)cc2)sc1C(=O)O)c1ccc(Cl)cc1Cl (centres unmarked) [Compound 23],> 8.3 µM,0.1 to 8.3 µM,> 8.3 µM
"COP(=O)(Nc1cc(-c2ccccc2)sc1C(=O)O)c1ccccc1 (centres unmarked) [Compound 25, 2-Thiophenecarboxylic acid, 3-N-(phenyl-phosphonamidatemethyl ester)-5-phenyl]",> 8.3 µM,> 8.3 µM,> 8.3 µM
COP(=O)(Nc1cc(-c2ccc(-c3cc4ncccn4n3)cc2)sc1C(=O)O)c1ccc(C)cc1C (centres unmarked) [Compound 26],> 8.3 µM,< 0.1 µM,< 0.1 µM
"COP(=O)(Nc1cc(-c2ccccc2)sc1C(=O)O)c1ccc(C)cc1C (centres unmarked) [Compound 27, 2-Thiophenecarboxylic acid, 3-N-[(2,4-dimethyl-phenyl)-phosphonamidatemethyl ester]-5-phenyl]",> 8.3 µM,< 0.1 µM,0.1 to 8.3 µM
"CCOP(=O)(Nc1cc(-c2ccccc2)sc1C(=O)O)c1ccc(Cl)cc1Cl (centres unmarked) [Compound 28, 2-Thiophenecarboxylic acid, 3-N-[(2,4-dichlorophenyl)-phosphonamidateethyl ester]-5-phenyl]",> 8.3 µM,0.1 to 8.3 µM,> 8.3 µM
"CCOP(=O)(Nc1cc(-c2ccc(C#N)cc2)sc1C(=O)O)c1ccc(Cl)cc1Cl (centres unmarked) [Compound 29, 2-Thiophenecarboxylic acid, 3-N-[(2,4-dichlorophenyl)-phosphonamidateethyl ester]-5-(4-cyanophenyl)]",> 8.3 µM,,> 8.3 µM
"CCOP(=O)(c1ccc(C)cc1C)N(c1cc(-c2ccc(F)cc2)sc1C(=O)O)C(C)C (centres unmarked) [Compound 33, 2-Thiophenecarboxylic acid, 3-N-isopropyl-N-[(2,4-dimethyl-phenyl)-phosphonamidateethyl ester]-5-(4-fluorophenyl)]",> 8.3 µM,0.1 to 8.3 µM,0.1 to 8.3 µM
COP(=O)(Nc1cc(-c2ccc(Cl)cc2F)sc1C(=O)O)c1ccc(C)cc1C (centres unmarked) [Compound 79],> 8.3 µM,< 0.1 µM,0.1 to 8.3 µM
COP(=O)(Nc1cc(-c2ccccc2F)sc1C(=O)O)c1ccc(C)cc1C (centres unmarked) [Compound 80],> 8.3 µM,0.1 to 8.3 µM,> 8.3 µM
COc1ccncc1-c1cc(NP(=O)(OC)c2ccc(C)cc2C)c(C(=O)O)s1 (centres unmarked) [Compound 82],> 8.3 µM,0.1 to 8.3 µM,0.1 to 8.3 µM
COP(=O)(Nc1cc(-c2ccc(-c3cc4ncccc4o3)cc2)sc1C(=O)O)C1CC=C(C)CC1 (centres unmarked) [Compound 83],> 8.3 µM,< 0.1 µM,0.1 to 8.3 µM
CCCOP(=O)(Nc1cc(-c2ccc(Cl)cc2)sc1C(=O)O)c1ccc(C)cc1C (centres unmarked) [Compound 87],> 8.3 µM,0.1 to 8.3 µM,0.1 to 8.3 µM
COP(=O)(Nc1cc(-c2cccc(F)c2)sc1C(=O)O)c1ccc(C)cc1C (centres unmarked) [Compound 88],> 8.3 µM,0.1 to 8.3 µM,0.1 to 8.3 µM
Cc1ccc(P(=O)(Nc2cc(-c3ccc(Cl)cc3)sc2C(=O)O)OC(C)C)c(C)c1 (centres unmarked) [Compound 89],> 8.3 µM,0.1 to 8.3 µM,0.1 to 8.3 µM
COP(=O)(Nc1cc(-c2cc3ccccc3o2)sc1C(=O)O)c1ccc(C)cc1C (centres unmarked) [Compound 96],> 8.3 µM,< 0.1 µM,0.1 to 8.3 µM
COP(=O)(Nc1cc(-c2cc3ccccc3s2)sc1C(=O)O)c1ccc(C)cc1C (centres unmarked) [Compound 97],> 8.3 µM,< 0.1 µM,0.1 to 8.3 µM
COP(=O)(Nc1cc(-c2cccs2)sc1C(=O)O)c1ccc(C)cc1C (centres unmarked) [Compound 98],> 8.3 µM,0.1 to 8.3 µM,0.1 to 8.3 µM
COP(=O)(Nc1cc(-c2cccnc2)sc1C(=O)O)c1ccc(C)cc1C (centres unmarked) [Compound 99],> 8.3 µM,0.1 to 8.3 µM,> 8.3 µM
COP(=O)(Nc1cc(-c2ccc(-c3cc4nc(C)cc(N)n4n3)cc2)sc1C(=O)O)c1ccc(C)cc1C (centres unmarked) [Compound 100],> 8.3 µM,< 0.1 µM,< 0.1 µM
COP(=O)(Nc1cc(-c2ccc(C#Cc3cncn3C)cc2)sc1C(=O)O)c1ccc(C)cc1C (centres unmarked) [Compound 101],> 8.3 µM,< 0.1 µM,0.1 to 8.3 µM

SMILES,CC50 (in vitro),IC50 [1],EC50 [1]
COP(=O)(Nc1cc(-c2ccc(C#CC3CCCC3)cc2)sc1C(=O)O)c1ccc(C)cc1C (centres unmarked) [Compound 102],> 8.3 µM,0.1 to 8.3 µM,> 8.3 µM
COP(=O)(Nc1cc(-c2ccc(C#Cc3ccsc3)cc2)sc1C(=O)O)c1ccc(C)cc1C (centres unmarked) [Compound 103],> 8.3 µM,< 0.1 µM,< 0.1 µM
COP(=O)(Nc1cc(-c2ccc(C#CCC(C)C)cc2)sc1C(=O)O)c1ccc(C)cc1C (centres unmarked) [Compound 104],> 8.3 µM,0.1 to 8.3 µM,> 8.3 µM
COP(=O)(Nc1cc(-c2ccc(-c3cc4nc(C)ccn4n3)cc2)sc1C(=O)O)c1ccc(C)cc1C (centres unmarked) [Compound 105],> 8.3 µM,< 0.1 µM,< 0.1 µM
C#CCOP(=O)(Nc1cc(-c2ccc(Cl)cc2)sc1C(=O)O)c1ccc(C)cc1C (centres unmarked) [Compound 106],> 8.3 µM,0.1 to 8.3 µM,0.1 to 8.3 µM
CCOC(=O)OC(C)N(c1cc(-c2ccc(Cl)cc2)sc1C(=O)OC(C)OC(=O)OC)P(=O)(OC)c1ccc(C)cc1C (centres unmarked) [Compound 108],> 8.3 µM,> 8.3 µM,0.1 to 8.3 µM
CCOP(=O)(Nc1cc(-c2ccc(Cl)cc2)sc1C(=O)O)C1CCC(C)CC1 (centres unmarked) [Compound 110],> 8.3 µM,0.1 to 8.3 µM,> 8.3 µM
COP(=O)(Nc1cc(-c2ccc(Cl)cc2)sc1C(N)=O)c1ccc(C)cc1C (centres unmarked) [Compound 111],> 8.3 µM,> 8.3 µM,> 8.3 µM
COP(=O)(Nc1cc(-c2ccc(-c3cc4ncccn4n3)cc2)sc1C(=O)OCc1ccccc1)c1ccc(C)cc1C (centres unmarked) [Compound 112],> 8.3 µM,0.1 to 8.3 µM,0.1 to 8.3 µM
COP(=O)(c1ccc(C)cc1C)N(C)c1cc(-c2ccc(Cl)cc2)sc1C(=O)O (centres unmarked) [Compound 113],> 8.3 µM,< 0.1 µM,0.1 to 8.3 µM
COP(=O)(Nc1cc(-c2ccc(NC(=O)c3cscn3)cc2)sc1C(=O)O)c1ccc(C)cc1C (centres unmarked) [Compound 115],> 8.3 µM,< 0.1 µM,< 0.1 µM
COP(=O)(Nc1cc(I)sc1C(=O)O)c1ccc(C)cc1C (centres unmarked) [Compound 116],> 8.3 µM,0.1 to 8.3 µM,> 8.3 µM
CCOP(=O)(Nc1cc(-c2ccc(Cl)cc2)sc1C(=O)O)C1CC=C(C)CC1 (centres unmarked) [Compound 117],> 8.3 µM,0.1 to 8.3 µM,> 8.3 µM
COP(=O)(Nc1cc(-c2ccc(C#CC3CC3)cc2)sc1C(=O)O)c1ccc(C)cc1C (centres unmarked) [Compound 118],> 8.3 µM,< 0.1 µM,0.1 to 8.3 µM
COP(=O)(Nc1cc(-c2ccc(-c3cc4ncccc4o3)cc2)sc1C(=O)O)c1ccc(Cl)cc1F (centres unmarked) [Compound 119],> 8.3 µM,< 0.1 µM,< 0.1 µM
COP(=O)(Nc1cc(-c2ccc(-c3cccc([N+](=O)[O-])c3)cc2)sc1C(=O)O)c1ccc(C)cc1C (centres unmarked) [Compound 120],> 8.3 µM,0.1 to 8.3 µM,> 8.3 µM
COP(=O)(Nc1cc(-c2ccc(-c3cccc4ncccc34)cc2)sc1C(=O)O)c1ccc(C)cc1C (centres unmarked) [Compound 121],> 8.3 µM,< 0.1 µM,0.1 to 8.3 µM
COP(=O)(Nc1cc(-c2ccc(-c3ccc(OCc4ccccc4)nc3)cc2)sc1C(=O)O)c1ccc(C)cc1C (centres unmarked) [Compound 122],> 8.3 µM,0.1 to 8.3 µM,> 8.3 µM
COc1cc(-c2ccc(-c3cc(NP(=O)(OC)c4ccc(C)cc4C)c(C(=O)O)s3)cc2)cc(OC)c1OC (centres unmarked) [Compound 123],> 8.3 µM,0.1 to 8.3 µM,> 8.3 µM
COP(=O)(Nc1cc(-c2ccc(-c3ccccc3F)cc2)sc1C(=O)O)c1ccc(C)cc1C (centres unmarked) [Compound 124],> 8.3 µM,0.1 to 8.3 µM,0.1 to 8.3 µM
COP(=O)(Nc1cc(-c2ccc(-c3cc4ccccc4o3)cc2)sc1C(=O)O)c1ccc(C)cc1C (centres unmarked) [Compound 125],> 8.3 µM,< 0.1 µM,< 0.1 µM
